Measurements reported in publication PMC6452685, “Lysyl-tRNA synthetase as a drug target in malaria and cryptosporidiosis” (Proceedings of the National Academy of Sciences of the …, 2019).

Experiments:
[1] = target: PfKRS1 (Plasmodium falciparum, UniProt Q8IDJ8); experiment: PfKRS1 mode of inhibition, pyrophosphate generation (EnzChek); type: biochemical; parameters: recombinant PfKRS1 (77–583 and 80–583); His (N); MBP (with TEV site) (N); made in house; host or cells: E. coli BL21 (DE3); codon-optimised gene from Genscript
PfKRS1, sequence (Q8IDJ8 entry or part of it): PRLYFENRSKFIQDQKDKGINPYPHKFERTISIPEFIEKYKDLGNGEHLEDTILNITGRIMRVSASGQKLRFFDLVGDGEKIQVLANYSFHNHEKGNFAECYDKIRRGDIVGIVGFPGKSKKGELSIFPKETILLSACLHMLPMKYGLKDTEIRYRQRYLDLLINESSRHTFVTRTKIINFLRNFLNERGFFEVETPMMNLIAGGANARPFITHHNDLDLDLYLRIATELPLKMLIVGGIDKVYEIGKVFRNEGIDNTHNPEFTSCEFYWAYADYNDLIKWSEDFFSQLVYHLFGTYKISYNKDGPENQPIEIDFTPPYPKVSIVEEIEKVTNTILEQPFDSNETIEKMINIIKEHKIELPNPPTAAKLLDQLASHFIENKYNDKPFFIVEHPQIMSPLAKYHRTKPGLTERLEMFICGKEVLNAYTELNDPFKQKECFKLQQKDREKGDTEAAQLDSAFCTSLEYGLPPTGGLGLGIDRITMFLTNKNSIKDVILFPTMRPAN
Method: SUPPLEMENTARY INFORMATION glycerol pH 7.5/protease inhibitor tablets/DNAase) was added and the pellets for defrosted at room temperature for approximately 10 min. The slurry was then passed through a Cell Disrupter (Constant Systems) set at 30 KPSI to l yse the cel ls. The s ample w as t hen cent ri fug ed at 40, 000g for 2 0 mi n. The supernatant was then filtered using syringe filters to 0.45 µm. The s upernat ant w as l oaded ont o a 5 ml Hi Trap Ni HP col umn that had been eq ui l i brated wi th Buffer A (25 m M HEP ES /5 00 m M NaC l /2 0 mM Imi dazol e/2 mM DTT/10% Gl ycerol pH 7.5) at 5 ml /mi n usi ng an AKTA Pure system. Once l oaded the column was washed with 10 column volumes buffer A. A 5% step of Buf fer B (25 mM HEPES /50 0 mM NaC l /500 mM I mi daz ol e/2mM D TT/ 10% Glycerol pH 7.5) was then used to wash off His rich contami nati ng protei ns . […]
2.5 PfKR S1, CpKRS and HsKR S Pyr oph osphate Ge ne r ation EnzChe kTM Ki ne tic M e asur e me nts Steady-state kinetic measurements were conduc ted at room temperature using a PheraStar plate re a de r (BM G ). End-poi nt s fo r t he ami noacy l at i on react i on of PfKRS1, which produces inorganic py roph os phat e t hat i s conv ert ed t o t w o mol ecules of i norg ani c phos phat e us i ng a py rophos phat as e enzyme, were measured usi ng the EnzChek™ Pho sphate Assay Ki t, whi ch gives an absorbance read - out at 36 0 nm. […] The reaction was carried out for 6 h (PfKRS1 an d CpKRS) or 1 2 h (HsKRS) at ro om temperature and then the absorbance o f each wel l was read at 360 nm. The s ubs t rat es Km values were determined by varying the concentration of one of the substrates at saturati ng concentrati on of the othe r. […]
where V is the maximal velocity (here expressed as µM/min of phosphate production), S is the substrate concentration a nd K is the Michaelis constant for the substrate (Km). […]

[2] = Hepatocyte stability, mouse; type: in vitro ADME
Method: SUPPLEMENTARY INFORMATION where V (ml/mg protein) is the incubation volume/mg protein added (0.5) and microsomal protein yield is taken as being 52.5 mg protein per g liver. Verapami l (0. 5 µ M ) w as us ed as a pos i t i v e cont rol to confirm ac ceptable assay performance. Ex peri ments were performed us i ng a s i ngl e ti me-cours e […]
4.5 He pat ocy t e s t abilit y
Cryopreserved hepatocytes were used to take non-CYP mediated Phase I and Phase II enzymes into […]
than those determined using li v e r mi crosomes or other subcellular liver fractions and could be mo re predi ct i v e of a met abol i c rat e det ermi ned in vivo.
Cryopreserved mouse (batch MC539) and huma n (batch HU E50H) hepatocytes were supplied by ThermoFi sher Sci enti fi c, Pai sl ey, UK and Xenotech, LLC, respectively. Cryopreserved hepatocytes were rapidly thawed in a pre-heat ed w at er bat h at 37 °C before ad di ng to 50 ml of pre-warmed CHRM medi a (ThermoFi sher Sci enti fi c, Paisley, UK) and mi xed gentl y. […] […] 5 mi l li on v i abl e cel l s /ml i n s uppl emented W ME. Onl y s us pens i ons whi ch ac hi ev ed >80% pos t-thaw viability were us ed i n ex peri ment s . […]
DMSO and 0.25 million cells/ml. […]

[3] = In vivo pharmacokinetics in mouse
Source text: 5. In vi vo pharmacokinetic and efficacy studies
5.1 In viv o ph armacokinetics (Dundee)
The l ev el of each comp ound i n mouse bl ood was determi ned by UPLC -MS/MS as previously re port e d (18). Pharmacokinetic parameters were derived from the blood c oncent ration time curve usi ng PKsol uti ons software v 2.0 (Summi t Research Servi ces, USA). […]

In the case of `O=C(NCC1(O)CCC(F)(F)CC1)c1cc(=O)c2cc(F)ccc2o1` [Compound 5], the “Ki, linear uncompetitive inhibition vs. L-lysine” value ([1]; EnzChek, saturating ATP) is reported as 212 nM, the Ki ([1]; EnzChek, saturating L-lysine, read-out: Ki, linear competitive inhibition vs. ATP) is reported as 32 nM and the IC50 ([1]; saturating concentrations of both substrates) is reported as 210 nM. For the same compound, the “Hepatocyte stability CLint” value [2] was 0.5 (mouse), <0.5 (human) mL⋅min^−1⋅g^−1, the “compound present in mouse stools” value ([3]; after oral dosing) was 17 % of oral dose and the AUC(0-t) ([3]; female, BALB/c, whole blood, po, orally, 10 mg/kg, read-out: Mouse PK orally AUC0–1440) was 21700 to 50000 ng·h/mL. For the same compound, the Cmax ([3]; female, BALB/c, whole blood, po, orally, 10 mg/kg, read-out: Mouse PK orally Cmax) was 5400 ng/mL, the bioavailability ([3]; female, BALB/c, whole blood, po, orally, 10 mg/kg, read-out: Mouse PK orally F% (oral bioavailability)) was 100% and the Tmax ([3]; female, BALB/c, whole blood, po, orally, 10 mg/kg, read-out: Mouse PK orally Tmax) was 2 h. The AUC ([3]; female, Balb/c, whole blood, iv, intravenously, 3 mg/kg, read-out: Mouse PK intravenously AUC (converted)) was 14800 ng·h/mL, the half-life ([3]; female, Balb/c, whole blood, iv, intravenously, 3 mg/kg, read-out: Mouse PK intravenously T1/2 (converted)) was 2.5 h and the Vd ([3]; female, Balb/c, whole blood, iv, intravenously, 3 mg/kg, read-out: Mouse PK intravenously Vdss) was 1 L/kg. The “Mouse PK intravenously Clb” value ([3]; intravenously, 3 mg/kg) was 3.4 mL⋅min^−1⋅kg^−1 and the “Mouse PK orally F% (oral bioavailability)” value ([3]; orally, 10 mg/kg) was “completely bioavailable”.
